Patent US20240327356A1, “PYRIMIDINE BASED RAS MODULATORS AND USES THEREOF” (QUANTA THERAPEUTICS, INC., priority 2021, published 2024)
pEC50, pIC50: −log10 of the molar value.

tested on: Phospho-ERK (Thr202/Tyr204) in MiaPaCa-2 cells; assay: pERK inhibition in MiaPaca-2 cell line (HTRF); format: cell-based; conditions: Homo sapiens, MIA PaCa-2, 1 hour incubation with compound
Experimental: MiaPaCa-2 cells (ATCC CRL-1420) were cultured in high glucose DMEM (Gibco 11965092) containing 10% fetal bovine serum (Gibco 1993708) and 1× Penicillin/Streptomycin, at 37° C. in a humid atmosphere of 5% CO2 in the air. Cells were plated in tissue-culture treated 96-well plates at a density of 10,000 cells/well and allowed to attach for 16 hours. The medium was then removed, and diluted compounds were added in a final concentration of 0.5% DMSO. After 1 hour of incubation, cells were lysed by the lysis buffer supplied with the Phospho-ERK (Thr202/Tyr204) cellular HTRF kit (Cisbio 64ERKPEH) and transferred to a 384-well low-volume white plate (PerkinElmer 6008280). The cell lysates were treated with the detection reagents supplied with the HTRF kit for 4 hours at ambient temperature in darkness. Two fluorescence intensities at the wavelengths (665 and 620 nm) were measured by the Envision plate reader (Perkin Elmer), and the data were processed and fitted to a 4-parameter logistic model for IC50 calculation (GraphPad Prism 9).

Compound	pIC50
Cc1ccc(-c2ncc(NC(=O)c3ccccc3)c(N3CCC(CN)C3)n2)cc1Cl (centres unmarked) [Compound 114]	5.00 to 6.00
N#CC1(C(=O)NCc2cnc(-c3ccc(Cl)c(C(F)(F)F)c3)nc2C2=CCC(N)CC2)CC1 (centres unmarked) [Compound 58, N-[[4-(4-aminocyclohexen-1-yl)-2-[4-chloro-3-(trifluoromethyl)phenyl]pyrimidin-5-yl]methyl]-1-cyano-cyclopropanecarboxamide]	5.00 to 6.00
Cc1ccc(-c2ncc(NC(=O)C3CC3)c(N3CCC(CN)C3)n2)cc1Cl (centres unmarked) [Compound 113]	5.00 to 6.00
NCC1CCN(c2nc(-c3ccc(C(F)(F)F)cc3F)ncc2C2CCNC2)C1 (centres unmarked) [Compound 17, [1-[2-[2-fluoro-4-(trifluoromethyl)phenyl]-5-pyrrolidin-3-yl-pyrimidin-4-yl]pyrrolidin-3-yl]methanamine]	5.00 to 6.00
N#CC1(C(=O)NCc2cnc(-c3ccc(Cl)c(C(F)(F)F)c3)nc2N2CCOC(CN)C2)CC1 (centres unmarked) [Compound 51]	5.00 to 6.00
Cc1ccc(-c2ncc(CN3CCOC3=O)c(N3CCC(CN)C3)n2)cc1Cl (centres unmarked) [Compound 121, 3-[[4-[3-(aminomethyl)pyrrolidin-1-yl]-2-(3-chloro-4-methyl-phenyl)pyrimidin-5-yl]methyl]oxazolidin-2-one]	5.00 to 6.00
N#Cc1cc(-c2ncc(CNC(=O)C3(F)CC3)c(N3CCC(CN)C3)n2)ccc1Cl (centres unmarked) [Compound 35]	5.00 to 6.00
NCCOc1cnc(-c2ccc(Cl)c(C(F)(F)F)c2)nc1N1CC[C@@H](CN)C1 [Compound 3, (S)-2-((4-(3-(aminomethyl)pyrrolidin-1-yl)-2-(4-chloro-3-(trifluoromethyl)phenyl)pyrimidin-5-yl)oxy)ethan-1-amine]	5.00 to 6.00
N#CC1(C(=O)NCc2cnc(-c3ccc(Cl)c(C(F)(F)F)c3)nc2N2CCC[C@@H]2CN)CC1 [Compound 66]	5.00 to 6.00
Cc1ccc(-c2ncc(CNC(=O)C3(F)CC3)c(N3CCC(N)CC3)n2)cc1Cl [Compound 92]	5.00 to 6.00
Cc1ccc(-c2ncc(CNS(=O)(=O)c3ccccc3)c(N3CCC(CN)C3)n2)cc1Cl (centres unmarked) [Compound 94]	5.00 to 6.00
Cc1ccc(-c2ncc(CNC(=O)C3(F)CC3)c(N3CC[C@H](CN)C3)n2)cc1Cl [Compound 93]	5.00 to 6.00
N#CC1(C(=O)NCc2cnc(-c3ccc(Cl)cc3F)nc2N2CCC(CN)C2)CC1 (centres unmarked) [Compound 24]	4.30 to 5.00
Cc1ccc(-c2ncc(CNC(=O)C3(F)CC3)c(CN3CCN(C)CC3)n2)cc1Cl [Compound 128, N-[[2-(3-chloro-4-methyl-phenyl)-4-[(4-methylpiperazin-1-yl)methyl]pyrimidin-5-yl]methyl]-1-fluoro-cyclopropanecarboxamide]	4.30 to 5.00
N#CC1(C(=O)NCc2cnc(-c3ccc4ccccc4c3)nc2N2CCC(CN)C2)CC1 (centres unmarked) [Compound 64]	4.30 to 5.00
N#CC1(C(=O)NCc2cnc(-c3ccc4c(c3)CC4)nc2N2CCC(CN)C2)CC1 (centres unmarked) [Compound 117]	5.00 to 6.00
Cc1ccc(-c2ncc(CNC(=O)C3(C#N)CC3)c(N3CCN(C)CC3)n2)cc1Cl [Compound 115]	5.00 to 6.00
Cc1ccc(-c2ncc(CNC(=O)C3(F)CC3)c(O[C@@H]3CNC[C@@H]3O)n2)cc1Cl (racemic) [Compound 100]	4.30 to 5.00
CCOC(=O)NCc1cnc(-c2ccc(C(F)(F)F)cc2F)nc1N1CCC(CN)C1 (centres unmarked) [Compound 21, ethyl N-[[4-[3-(aminomethyl)pyrrolidin-1-yl]-2-[2-fluoro-4-(trifluoromethyl)phenyl]pyrimidin-5-yl]methyl]carbamate]	4.30 to 5.00
NCC1CCN(c2nc(-c3ccc(C(F)(F)F)cc3F)ncc2C2=CCNC2)C1 (centres unmarked) [Compound 8]	5.00 to 6.00
NCC1CCN(c2nc(-c3ccc(Cl)cc3F)ncc2C2=CCNC2)C1 (centres unmarked) [Compound 11]	5.00 to 6.00
Cc1ccc(-c2ncc(OCC(=O)N(C)C)c(N3CCC(CN)C3)n2)cc1Cl (centres unmarked) [Compound 127]	5.00 to 6.00
NCC1CCN(c2nc(-c3ccc(Cl)c(C(F)(F)F)c3)ncc2OC2CNC2)C1 (centres unmarked) [Compound 13]	5.00 to 6.00
NCC1CCN(c2nc(-c3ccc(Cl)c(C(F)(F)F)c3)ncc2OC2COC2)C1 (centres unmarked) [Compound 16]	5.00 to 6.00
NCC1CCN(c2nc(-c3ccc(Cl)c(C(F)(F)F)c3)ncc2OC2CCNC2)C1 (centres unmarked) [Compound 15]	5.00 to 6.00
Cc1ccc(-c2ncc(NS(=O)(=O)C3CC3)c(N3CCC(CN)C3)n2)cc1Cl (centres unmarked) [Compound 111]	5.00 to 6.00
N#Cc1cc(-c2ncc(C3=CCNC3)c(N3CCC(CN)C3)n2)ccc1Cl (centres unmarked) [Compound 22]	5.00 to 6.00

biological target: KRAS^G12D-FMe.RAF1^RBDCRD complex (Homo sapiens, UniProt P01116, G12D); assay: SHG assay: binding to bilayer-tethered KRAS G12D/RAF1 complex; conditions: GppNHp-loaded complex on PS bilayer; compound 0.027-40 μM, monitored over 60 min
Experimental: Compounds suspected to carry intrinsic SHG activity were tested in the presence of an unlabeled KRAS^G12D-FMe.RAF1^RBDCRD complex to monitor binding. PS bilayer was prepared from PS-enriched small unilamellar vesicles (SUVs) purchased from Biodesy, Inc. The concentrated SUVs were diluted in TBS buffer containing 5 mM CaCl2 and incubated on a glass-bottom 384-well Biodesy Delta™ assay plate to allow bilayer formation. Equimolar amounts of GppNHp-loaded KRAS^G12D-FMe and RAF1^RBDCRD were mixed and incubated together on PS bilayer overnight at 4° C. The following day, untethered protein was removed by washing with assay buffer (20 mM Hepes, pH 7.4, […], 1 mM TCEP, 5 μM GppNHp). The SHG signal produced by bilayer-tethered complex was ready using the Biodesy Delta™ platform where each well was pulsed with an 800 nm laser and the resulting second harmonic signal intensity at 400 nm was collected. Compounds were diluted into the same assay buffer and applied to the complex at a final concentration range spanning 0.027 μM-40 μM and the SHG intensity of each well was monitored at 5 minute intervals over a 60 minute time period.

Compound	pEC50
N#CC1(C(=O)NCc2cnc(-c3ccc(Cl)c(C(F)(F)F)c3)nc2C2=CCC(N)CC2)CC1 (centres unmarked) [Compound 58, N-[[4-(4-aminocyclohexen-1-yl)-2-[4-chloro-3-(trifluoromethyl)phenyl]pyrimidin-5-yl]methyl]-1-cyano-cyclopropanecarboxamide]	5.00 to 6.00
Cc1ccc(-c2ncc(NC(=O)C3CC3)c(N3CCC(CN)C3)n2)cc1Cl (centres unmarked) [Compound 113]	4.30 to 5.00
NCC1CCN(c2nc(-c3ccc(C(F)(F)F)cc3F)ncc2C2CCNC2)C1 (centres unmarked) [Compound 17, [1-[2-[2-fluoro-4-(trifluoromethyl)phenyl]-5-pyrrolidin-3-yl-pyrimidin-4-yl]pyrrolidin-3-yl]methanamine]	5.00 to 6.00
N#CC1(C(=O)NCc2cnc(-c3ccc(Cl)c(C(F)(F)F)c3)nc2N2CCOC(CN)C2)CC1 (centres unmarked) [Compound 51]	5.00 to 6.00
Cc1ccc(-c2ncc(CN3CCOC3=O)c(N3CCC(CN)C3)n2)cc1Cl (centres unmarked) [Compound 121, 3-[[4-[3-(aminomethyl)pyrrolidin-1-yl]-2-(3-chloro-4-methyl-phenyl)pyrimidin-5-yl]methyl]oxazolidin-2-one]	5.00 to 6.00
N#Cc1cc(-c2ncc(CNC(=O)C3(F)CC3)c(N3CCC(CN)C3)n2)ccc1Cl (centres unmarked) [Compound 35]	4.30 to 5.00
N#CC1(C(=O)NCc2cnc(-c3ccc(Cl)c(C(F)(F)F)c3)nc2N2CCC[C@@H]2CN)CC1 [Compound 66]	5.00 to 6.00
Cc1ccc(-c2ncc(CNC(=O)C3CNC3)c(N3CCC(CN)C3)n2)cc1Cl (centres unmarked) [Compound 85]	5.00 to 6.00
Cc1ccc(-c2ncc(CNC(=O)C3(F)CC3)c(N3CCC(N)CC3)n2)cc1Cl [Compound 92]	5.00 to 6.00
Cc1ccc(-c2ncc(CNS(=O)(=O)c3ccccc3)c(N3CCC(CN)C3)n2)cc1Cl (centres unmarked) [Compound 94]	5.00 to 6.00
Cc1ccc(-c2ncc(CNC(=O)C3(F)CC3)c(N3CC[C@H](CN)C3)n2)cc1Cl [Compound 93]	5.00 to 6.00
Cc1ccc(-c2ncc(CNC(=O)C3CN(C)C3)c(N3CCC(CN)C3)n2)cc1Cl (centres unmarked) [Compound 86]	5.00 to 6.00
Cc1ccc(-c2ncc(CNC(=O)C3(C#N)CC3)c(N3CCC(CN(C)C)C3)n2)cc1Cl (centres unmarked) [Compound 129]	5.00 to 6.00
CN1CCC(Oc2nc(-c3ccc(Cl)c(C(F)(F)F)c3)ncc2CNC(=O)C2(C#N)CC2)C1 (centres unmarked) [Compound 79]	4.30 to 5.00
CS(=O)(=O)NCc1cnc(-c2ccc(Cl)c(C(F)(F)F)c2)nc1N1CCC(CN)C1 (centres unmarked) [Compound 6, N-[[4-[3-(aminomethyl)pyrrolidin-1-yl]-2-[4-chloro-3-(trifluoromethyl)phenyl]pyrimidin-5-yl]methyl]methanesulfonamide]	5.00 to 6.00
CN1CC(Oc2nc(-c3ccc(Cl)c(C(F)(F)F)c3)ncc2CNC(=O)C2(C#N)CC2)C1 [Compound 78]	4.30 to 5.00
NCc1cnc(-c2ccc(Cl)c(C(F)(F)F)c2)nc1N1CCC(CN)C1 (centres unmarked) [Compound 4]	5.00 to 6.00

Next, values leading:

pEC50	Compound
5.00 to 6.00	CN(C)CC1CCN(c2nc(-c3cc(Cl)cc(Cc4ccccc4)c3)ncc2CNC(=O)C2(C#N)CC2)C1 (centres unmarked) [Compound 148]
5.00 to 6.00	Cc1ccc(-c2ncc(CNCC3CC3)c(N3CCC(CN)C3)n2)cc1Cl (centres unmarked) [Compound 132]
5.00 to 6.00	Cc1ccc(-c2ncc(CNC(=O)C3Cc4ccccc4O3)c(N3CCC(CN)C3)n2)cc1Cl (centres unmarked) [Compound 135]
5.00 to 6.00	N#CC1(C(=O)NCc2cnc(-c3ccc(Cl)c(OC(F)(F)F)c3)nc2N2CCC(CN)C2)CC1 (centres unmarked) [Compound 141]
5.00 to 6.00	N#CC1(C(=O)NCc2cnc(-c3cc(F)c(C(F)(F)F)c(F)c3)nc2N2CCC(CN)C2)CC1 (centres unmarked) [Compound 137]
5.00 to 6.00	C#CC1(C(=O)NCc2cnc(-c3ccc(Cl)c(C(F)(F)F)c3)nc2N2CCC(CN)C2)CC1 (centres unmarked) [Compound 145]
5.00 to 6.00	CN(C)CC1CCN(c2nc(-c3cc(Cl)cc(/C=C/c4ccccc4)c3)ncc2CNC(=O)C2(C#N)CC2)C1 (centres unmarked) [Compound 144]
5.00 to 6.00	CN(C)CC1CCN(c2nc(-c3ccc(Cc4ccccc4)c(Cl)c3)ncc2CNC(=O)C2(C#N)CC2)C1 (centres unmarked) [Compound 150]
4.30 to 5.00	C#Cc1cc(-c2ncc(CNC(=O)C3(C#N)CC3)c(N3CCC(CN(C)C)C3)n2)cc(F)c1C (centres unmarked) [Compound 147, 1-cyano-N-[[4-[3-[(dimethylamino)methyl]pyrrolidin-1-yl]-2-(3-ethynyl-5-fluoro-4-methyl-phenyl)pyrimidin-5-yl]methyl]cyclopropanecarboxamide]
5.00 to 6.00	CN(C)CC1CCN(c2nc(-c3cc(Cl)cc(C(F)c4ccccc4)c3)ncc2CNC(=O)C2(C#N)CC2)C1 (centres unmarked) [Compound 149]
5.00 to 6.00	Cc1ccc(-c2ncc(CNC(=O)C(F)(F)c3ccccc3)c(N3CCC(CN)C3)n2)cc1Cl (centres unmarked) [Compound 134]
5.00 to 6.00	Cc1ccc(-c2ncc(CNC(=O)C(F)c3ccccc3)c(N3CCC(CN)C3)n2)cc1Cl (centres unmarked) [Compound 133]
5.00 to 6.00	CN(C)CC1CCN(c2nc(-c3cc(Cl)cc(C#Cc4ccccc4)c3)ncc2CNC(=O)C2(C#N)CC2)C1 (centres unmarked) [Compound 143]
5.00 to 6.00	Cc1ccc(-c2ncc(CNc3ccccc3)c(N3CCC(CN)C3)n2)cc1Cl (centres unmarked) [Compound 130]
5.00 to 6.00	Cc1ccc(-c2ncc(OCC(=O)Nc3ccccc3)c(N3CCC(CN)C3)n2)cc1Cl (centres unmarked) [Compound 131]
5.00 to 6.00	CN(C)CC1CCN(c2nc(-c3cc(Cl)cc(-c4ccccc4)c3)ncc2CNC(=O)C2(C#N)CC2)C1 (centres unmarked) [Compound 142]
5.00 to 6.00	Cc1c(Cl)cc(-c2ncc(CNC(=O)C3(C#N)CC3)c(N3CCC(CN)C3)n2)cc1Cl (centres unmarked) [Compound 139]
5.00 to 6.00	Cc1c(F)cc(-c2ncc(CNC(=O)C3(C#N)CC3)c(N3CCC(CN)C3)n2)cc1[N+](=O)[O-] (centres unmarked) [Compound 140]
